Assay results reported in ChEMBL document CHEMBL1148545, “New metabolically stable fatty acid amide ligands of cannabinoid receptors: Synthesis and receptor affinity studies” (Bioorg Med Chem Lett, 2006).

Columns and labels:
Cannabinoid receptor 2 = Cannabinoid receptor 2 (Homo sapiens, UniProt P34972); experiment: Displacement of [3H]CP-55940 from human recombinant CB2 receptor
Cannabinoid receptor 1 [1] = molecular target: T1, Cannabinoid receptor 1 (Homo sapiens, UniProt P21554); experiment: Displacement of [3H]CP-55940 from human recombinant CB1 receptor
[2] = molecular target: T2, Fatty-acid amide hydrolase 1 (Rattus norvegicus, UniProt P97612); experiment: Inhibitory activity against rat brain FAAH by [14C]anandamide hydrolysis
T2 sequence (P97612 whole entry): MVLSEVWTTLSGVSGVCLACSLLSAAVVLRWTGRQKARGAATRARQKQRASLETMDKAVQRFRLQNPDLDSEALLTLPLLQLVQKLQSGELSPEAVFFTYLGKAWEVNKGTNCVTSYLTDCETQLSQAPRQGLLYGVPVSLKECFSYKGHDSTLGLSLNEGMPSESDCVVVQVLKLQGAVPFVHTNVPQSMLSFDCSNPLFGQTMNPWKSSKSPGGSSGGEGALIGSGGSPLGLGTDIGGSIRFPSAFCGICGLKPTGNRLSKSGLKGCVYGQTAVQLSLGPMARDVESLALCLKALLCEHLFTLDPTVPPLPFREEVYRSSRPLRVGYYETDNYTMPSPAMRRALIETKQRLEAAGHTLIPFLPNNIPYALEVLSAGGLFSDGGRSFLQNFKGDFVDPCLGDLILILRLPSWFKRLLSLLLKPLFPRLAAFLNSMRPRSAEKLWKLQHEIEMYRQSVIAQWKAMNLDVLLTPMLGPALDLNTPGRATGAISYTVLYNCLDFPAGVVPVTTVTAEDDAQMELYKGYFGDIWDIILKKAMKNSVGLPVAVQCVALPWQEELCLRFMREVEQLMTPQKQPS

Cannabinoid receptor 1 [3] = molecular target: T1, Cannabinoid receptor 1; experiment: Displacement of [3H]CP-55940 from human recombinant CB1 receptor in presence of hydrolase inhibitor PMSF

T1 sequence (P21554 whole entry): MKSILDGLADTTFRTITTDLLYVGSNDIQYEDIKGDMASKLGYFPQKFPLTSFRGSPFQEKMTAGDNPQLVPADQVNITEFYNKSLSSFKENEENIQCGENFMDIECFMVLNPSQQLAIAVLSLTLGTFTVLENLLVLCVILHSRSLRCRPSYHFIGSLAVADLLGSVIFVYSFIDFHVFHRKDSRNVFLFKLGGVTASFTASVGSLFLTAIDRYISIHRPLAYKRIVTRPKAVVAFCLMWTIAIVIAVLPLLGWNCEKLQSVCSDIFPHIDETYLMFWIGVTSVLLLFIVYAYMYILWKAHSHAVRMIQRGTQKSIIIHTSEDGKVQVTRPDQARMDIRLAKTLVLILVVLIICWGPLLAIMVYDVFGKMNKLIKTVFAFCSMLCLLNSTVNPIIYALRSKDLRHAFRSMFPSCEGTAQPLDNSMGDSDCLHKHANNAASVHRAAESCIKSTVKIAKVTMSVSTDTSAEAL
Sequence of Cannabinoid receptor 2 (P34972 whole entry): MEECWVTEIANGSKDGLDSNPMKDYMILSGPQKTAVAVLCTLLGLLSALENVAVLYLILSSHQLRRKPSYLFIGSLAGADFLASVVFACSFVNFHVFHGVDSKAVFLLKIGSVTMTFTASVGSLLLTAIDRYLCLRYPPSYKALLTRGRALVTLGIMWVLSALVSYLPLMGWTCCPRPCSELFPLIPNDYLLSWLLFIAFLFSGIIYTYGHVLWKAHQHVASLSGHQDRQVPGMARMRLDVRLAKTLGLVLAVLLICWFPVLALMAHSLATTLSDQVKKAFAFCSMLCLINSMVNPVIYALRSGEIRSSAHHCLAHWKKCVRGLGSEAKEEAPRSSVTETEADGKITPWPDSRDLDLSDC

CCCCCCCC/C=C\CCCCCCCCCCCC(=O)NCCc1ccc(OC)cc1OC was tested, and the Ki (Cannabinoid receptor 2) was > 10 µM and the Ki (Cannabinoid receptor 1 [1]) was 3700 nM.

C=CCCCCCCCCC(=O)NCc1ccc(OC)cc1 was tested, and the Ki (Cannabinoid receptor 2) was > 10 µM and the Ki (Cannabinoid receptor 1 [1]) was > 10000 nM.

For CCCCCCCC/C=C\CCCCCCCC(=O)NCCc1ccc(OC)cc1, the IC50 [2] was > 25 µM, the Ki (Cannabinoid receptor 1 [3]) was 300 nM and the Ki (Cannabinoid receptor 2) was > 10 µM. The Ki (Cannabinoid receptor 1 [1]) was 400 nM.

For CCCCC/C=C\C/C=C\C/C=C\C/C=C\CCCC(=O)N1CCN(c2ccc(F)cc2)CC1, the IC50 [2] was > 25 µM, the Ki (Cannabinoid receptor 1 [3]) was 300 nM and the Ki (Cannabinoid receptor 2) was 5.1 µM. For the same compound, the Ki (Cannabinoid receptor 1 [1]) was 300 nM.

CCCCC/C=C\C/C=C\C/C=C\C/C=C\CCCC(=O)Nc1ccc(OC)cc1 gave a Ki (Cannabinoid receptor 2) of 4 µM and a Ki (Cannabinoid receptor 1 [1]) of 500 nM.

For CCCCC/C=C\C/C=C\C/C=C\C/C=C\CCCC(=O)Nc1ccc(N2CCOCC2)cc1, the IC50 [2] was > 25 µM, the Ki (Cannabinoid receptor 1 [3]) was 150 nM and the Ki (Cannabinoid receptor 2) was 4.3 µM. For the same compound, the Ki (Cannabinoid receptor 1 [1]) was 150 nM.

For CCCCC/C=C\C/C=C\C/C=C\C/C=C\CCCC(=O)NCc1ccc(OC)cc1, the Ki (Cannabinoid receptor 2) was 4.5 µM and the Ki (Cannabinoid receptor 1 [1]) was 600 nM.

CCCCCCCC/C=C\CCCCCCCC(=O)NCCc1cc(OC)cc(OC)c1 was tested, and the IC50 [2] was > 25 µM, the Ki (Cannabinoid receptor 1 [3]) was 1000 nM and the Ki (Cannabinoid receptor 2) was > 10 µM. For the same compound, the Ki (Cannabinoid receptor 1 [1]) was 1300 nM.

With CCCCCCCC/C=C/C(=O)NCc1ccc(OC)cc1 the Ki (Cannabinoid receptor 2) was > 10 µM and the Ki (Cannabinoid receptor 1 [1]) was > 10000 nM.

For CCCCC/C=C\C/C=C\C/C=C\C/C=C\CCCC(=O)NCCc1ccc(OC)cc1OC, the Ki (Cannabinoid receptor 2) was 4 µM and the Ki (Cannabinoid receptor 1 [1]) was 500 nM.

With C=CCCCCCCCCC(=O)NCCc1cc(OC)cc(OC)c1 the Ki (Cannabinoid receptor 2) was > 10 µM and the Ki (Cannabinoid receptor 1 [1]) was > 10000 nM.

With CCCCC/C=C\C/C=C\C/C=C\C/C=C\CCCC(=O)NCc1cc(OC)ccc1OC the Ki (Cannabinoid receptor 2) was 4.1 µM and the Ki (Cannabinoid receptor 1 [1]) was 500 nM.

In the case of C=CCCCCCCCCC(=O)NCCc1ccc(OC)cc1, the Ki (Cannabinoid receptor 2) is reported as > 10 µM and the Ki (Cannabinoid receptor 1 [1]) is reported as > 10000 nM.

CCCCCCCC/C=C\CCCCCCCC(=O)Nc1ccc(OC)cc1 was tested, and the IC50 [2] was > 25 µM, the Ki (Cannabinoid receptor 1 [3]) was 1500 nM and the Ki (Cannabinoid receptor 2) was > 10 µM. It also gave a Ki (Cannabinoid receptor 1 [1]) of 1600 nM.

For C=CCCCCCCCCC(=O)Nc1ccc(OC)cc1, the Ki (Cannabinoid receptor 2) was > 10 µM and the Ki (Cannabinoid receptor 1 [1]) was > 10000 nM.

In the case of CCCCC/C=C\C/C=C\C/C=C\C/C=C\CCCC(=O)NCc1ccc(OC)cc1OC, the IC50 [2] is reported as > 25 µM, the Ki (Cannabinoid receptor 1 [3]) is reported as 200 nM and the Ki (Cannabinoid receptor 2) is reported as 4 µM. The Ki (Cannabinoid receptor 1 [1]) was 200 nM.

With CCCCCCCC/C=C/C(=O)Nc1ccc(OC)cc1 the Ki (Cannabinoid receptor 2) was 2.5 µM.

For CCCCC/C=C\C/C=C\C/C=C\C/C=C\CCCC(=O)NCCc1cc(OC)cc(OC)c1, the Ki (Cannabinoid receptor 2) was > 10 µM and the Ki (Cannabinoid receptor 1 [1]) was > 10000 nM.

CCCCC/C=C\C/C=C\C/C=C\C/C=C\CCCC(=O)Nc1ccc(O)cc1 showed a Ki (Cannabinoid receptor 1 [1]) of 1760 nM.

For C=CCCCCCCCCC(=O)NCCc1ccc(OC)cc1OC, the Ki (Cannabinoid receptor 2) was > 10 µM and the Ki (Cannabinoid receptor 1 [1]) was > 10000 nM.

With CCCCC/C=C\C/C=C\C/C=C\C/C=C\CCCC(=O)NCCc1ccc(OC)cc1 the Ki (Cannabinoid receptor 2) was > 10 µM and the Ki (Cannabinoid receptor 1 [1]) was 2400 nM.

CCCCC/C=C\C/C=C\C/C=C\C/C=C\CCCC(=O)N1CCN(c2ccc(C)c(C)c2)CC1 gave a Ki (Cannabinoid receptor 2) of 4.2 µM and a Ki (Cannabinoid receptor 1 [1]) of 400 nM.

In the case of CCCCCCCC/C=C\CCCCCCCCCCCC(=O)Nc1ccc(N2CCOCC2)cc1, the Ki (Cannabinoid receptor 2) is reported as > 10 µM and the Ki (Cannabinoid receptor 1 [1]) is reported as 6400 nM.

In the case of CCCCCCCC/C=C\CCCCCCCCCCCC(=O)NCCc1ccc(OC)cc1, the Ki (Cannabinoid receptor 2) is reported as > 10 µM and the Ki (Cannabinoid receptor 1 [1]) is reported as > 10000 nM.

In the case of CCCCCCCC/C=C\CCCCCCCCCCCC(=O)Nc1ccc(OC)cc1, the Ki (Cannabinoid receptor 2) is reported as > 10 µM and the Ki (Cannabinoid receptor 1 [1]) is reported as > 10000 nM.

CCCCCCCC/C=C/C(=O)NCCc1ccc(OC)cc1 showed a Ki (Cannabinoid receptor 2) of 5.1 µM.

For CCCCCCCC/C=C\CCCCCCCC(=O)NCCc1ccc(OC)cc1OC, the IC50 [2] was > 25 µM, the Ki (Cannabinoid receptor 1 [3]) was 600 nM and the Ki (Cannabinoid receptor 2) was > 10 µM. For the same compound, the Ki (Cannabinoid receptor 1 [1]) was 800 nM.

For CCCCC/C=C\C/C=C\C/C=C\C/C=C\CCCC(=O)N1CCN(c2ccc(Cl)cc2)CC1, the Ki (Cannabinoid receptor 2) was > 10 µM and the Ki (Cannabinoid receptor 1 [1]) was 600 nM.

For CCCCCCCC/C=C\CCCCCCCC(=O)Nc1ccc(N2CCOCC2)cc1, the Ki (Cannabinoid receptor 2) was > 10 µM and the Ki (Cannabinoid receptor 1 [1]) was > 10000 nM.

Compound CCCCCCCC/C=C/C(=O)NCCc1cc(OC)cc(OC)c1 has a Ki (Cannabinoid receptor 2) of 5.2 µM and a Ki (Cannabinoid receptor 1 [1]) of 2800 nM.

In the case of C=CCCCCCCCCC(=O)Nc1ccc(N2CCOCC2)cc1, the Ki (Cannabinoid receptor 2) is reported as > 10 µM and the Ki (Cannabinoid receptor 1 [1]) is reported as > 10000 nM.

CCCCCCCC/C=C/C(=O)Nc1ccc(N2CCOCC2)cc1 was tested, and the Ki (Cannabinoid receptor 2) was > 10 µM and the Ki (Cannabinoid receptor 1 [1]) was > 10000 nM.

In the case of CCCCCCCC/C=C\CCCCCCCCCCCC(=O)NCCc1cc(OC)cc(OC)c1, the Ki (Cannabinoid receptor 2) is reported as > 10 µM and the Ki (Cannabinoid receptor 1 [1]) is reported as 5400 nM.

In the case of CCCCCCCC/C=C\CCCCCCCC(=O)NCc1ccc(OC)cc1, the IC50 [2] is reported as > 25 µM, the Ki (Cannabinoid receptor 1 [3]) is reported as 600 nM and the Ki (Cannabinoid receptor 2) is reported as > 10 µM. The Ki (Cannabinoid receptor 1 [1]) was 500 nM.

For CCCCCCCC/C=C/C(=O)NCCc1ccc(OC)cc1OC, the Ki (Cannabinoid receptor 2) was > 10 µM and the Ki (Cannabinoid receptor 1 [1]) was > 10000 nM.

With CCCCCCCC/C=C\CCCCCCCCCCCC(=O)NCc1ccc(OC)cc1 the Ki (Cannabinoid receptor 2) was > 10 µM and the Ki (Cannabinoid receptor 1 [1]) was > 10000 nM.
